Measured values reported in patent US9750746B2 (priority 2013, dated 2017).
Entries after “also recorded” stand apart in the source; their conditions may differ.

Key:
Aβ25-35 treated mice [1] = details: cited from earlier work
sodium channel site 2 = details: screening profile; cited from earlier work
Aβ25-35 treated mice [2] = experiment: lipid peroxidation in the hippocampus, Aβ25-35 treated mice; assay type: in vivo, Male Swiss OF-1 mice; details: hydrochloride
Protocol: Administration schedule: mice received ANAVEX2-73 (0.1-1 mg/kg i.p.) once-a-day between days −7 and −1 and Aβ25-35 (9 nmol i.c.v.) at day 0. Animals were examined between days 7 and 9. Their brain dissected out and assessed for lipid peroxidation (LPO) at day 10.
Administration schedule: mice received Aβ25-35 (9 nmol i.c.v.) at day 0 and ANAVEX2-73 (0.1, 0.3 mg/kg i.p.) once-a-day between days 7 and 13. Animals were examined between days 14 and 16. Their brain dissected out and assessed for lipid peroxidation (LPO) at day 17.
(§1) Male Swiss OF-1 mice (Depré, St Doulchard, France), aged 7-9 weeks and weighing 32±2 g were used in this study. Animals were housed in plastic cages in groups. They had free access to food and water, except during behavioral experiments, and they were kept in a regulated environment (23±1° C., 40-60% humidity) under a 12 h light/dark cycle (light on at 07:00 am). Experiments were carried out between 09:00 am and 05:00 pm, in an experimental room within the animal facility. Mice were habituated 30 min before each experiment. Animal procedures were conducted in adherence with the EU Directive 86-609.
Tetrahydro-N,N-dimethyl-2,2-diphenyl-3-furanmethanamine hydrochloride (ANAVEX2-73) was synthesized in the laboratory (Anavex Life Sciences, Greece). […] Drugs were solubilized in physiological saline solution and administered intraperitoneally (i.p.) in a volume of 100 μl per 20 g body weight. The amyloid-β[25-35] (Aβ25-35) and scrambled β25-35 (Sc.Aβ) peptides from Genepep (France) were solubilized in distilled water at 3 mg/ml and stored at 20° C. until use. Peptides were aged at 37° C. for 4 days and injected i.c.v. (3 μl per mouse).
Mouse hippocampus was homogenized in cold methanol, centrifuged at 1,000 g 5 min and supernatant collected. Homogenate was added to a solution of FeSO4 1 mM, H2SO4 0.25 M, xylenol orange 1 mM and incubated for 30 min at RT. Absorbance was measured at 580 nm (A5801), and 10 μl of cumene hydroperoxide (CHP) 1 mM was added and incubated for 30 min at RT. Absorbance was measured at 580 nm (A5802). Lipid peroxidation was determined as CHP equivalents: CHP eq.=A5801/A5802×[CHP (nmol)]×dilution, and expressed as percentage of the Sc.Aβ/V-treated group value.

Aβ25-35 treated mice [3] = experiment: spontaneous alternation in the Y-maze, Aβ25-35 treated mice; assay type: in vivo, Male Swiss OF-1 mice; details: hydrochloride
Protocol: Administration schedule: mice received ANAVEX2-73 (0.1-1 mg/kg i.p.) once-a-day between days −7 and −1 and Aβ25-35 (9 nmol i.c.v.) at day 0. Animals were examined between days 7 and 9.
Administration schedule: mice received Aβ25-35 (9 nmol i.c.v.) at day 0 and ANAVEX2-73 (0.1, 0.3 mg/kg i.p.) once-a-day between days 7 and 13. Animals were examined between days 14 and 16.
Administration schedule: mice received ANAVEX2-73 (0.1, 0.3 mg/kg i.p.) and/or donepezil (0.25, 0.5 mg/kg i.p.) once 20 min before Aβ25-35 (9 nmol i.c.v.) at day 0. Animals were examined between days 7 and 9.
Administration schedule: mice received ANAVEX2-73 (0.1, 0.3 mg/kg i.p.) and/or memantine (0.5, 1 mg/kg i.p.) once 20 min before Aβ25-35 (9 nmol i.c.v.) at day 0. Animals were examined between days 7 and 9.
as §1
Donepezil (E2020) was from Eisai Tsukuba Research Laboratories (Tsukuba, Japan) and memantine was from Sigma-Aldrich (St Quentin-Fallavier, France). Drugs were solubilized in physiological saline solution and administered intraperitoneally (i.p.) in a volume of 100 μl per 20 g body weight. The amyloid-β[25-35] (Aβ25-35) and scrambled β25-35 (Sc.Aβ) peptides from Genepep (France) were solubilized in distilled water at 3 mg/ml and stored at 20° C. until use. Peptides were aged at 37° C. for 4 days and injected i.c.v. (3 μl per mouse).
(§2) Spatial working memory was examined through the measure of spontaneous alternation performance in the Y-maze. Animals were allowed to explore the Y-shaped maze during 8 min and the number of alternations (consecutive exploration of the 3 arms) and total number of arms entered was recorded.

[4] = tested on: muscarinic M1-M4 receptors; details: cited from earlier work
Aβ25-35 treated mice [5] = experiment: combination studies in the Aβ25-35 model in mice, all parameters examined; assay type: in vivo, Male Swiss OF-1 mice; details: for minimal active dose: each drug, Aβ25-35 model in mice, ip; for efficacy of the drug alone in the combination studies with memantine: single drug, once 20 min before Aβ25-35
Protocol: (a) Administration schedule, (b) Y-maze test; (c) passive avoidance response. Administration schedule: mice received ANAVEX2-73 (0.1, 0.3 mg/kg i.p.) and/or donepezil (0.25, 0.5 mg/kg i.p.) once 20 min before Aβ25-35 (9 nmol i.c.v.) at day 0. Animals were examined between days 7 and 9.
(a) Administration schedule, (b) Y-maze test; (c) passive avoidance response. Administration schedule: mice received ANAVEX2-73 (0.1, 0.3 mg/kg i.p.) and/or memantine (0.5, 1 mg/kg i.p.) once 20 min before Aβ25-35 (9 nmol i.c.v.) at day 0. Animals were examined between days 7 and 9.
The spontaneous alternation (YMT) and passive avoidance (PAT) responses are shown. […] The 100% protection level represents the Sc.Aβ/V group and the 0% level, the Aβ25-35/V group. Only the data with the lowest doses tested are shown.
as §1
(§3) Donepezil (E2020) was from Eisai Tsukuba Research Laboratories (Tsukuba, Japan) and memantine was from Sigma-Aldrich (St Quentin-Fallavier, France). Drugs were solubilized in physiological saline solution and administered intraperitoneally (i.p.) in a volume of 100 μl per 20 g body weight. […] (Aβ25-35) and scrambled β25-35 (Sc.Aβ) peptides from Genepep (France) were solubilized in distilled water at 3 mg/ml and stored at 20° C. until use. Peptides were aged at 37° C. for 4 days and injected i.c.v. (3 μl per mouse).
as §2
(§4) Contextual long-term memory was measured using the step-through type passive avoidance test. During training, animals were placed in the white compartment of the two-compartment apparatus. The step-through latency to enter the dark compartment was recorded and mice received an electric shock (0.1 mA, 3 s). During the retention session, performed 24 h after training, the step-through latency to enter the dark compartement and escape latency, to re-exit, were recorded.

σ2 sites = σ2 sites (Homo sapiens, UniProt Q5BJF2); details: reported binding analyses; cited from earlier work
σ1 = σ1 (Homo sapiens, UniProt Q99720); details: believed to bind; cited from earlier work
Aβ25-35 treated mice [6] = experiment: step-through passive avoidance, Aβ25-35 treated mice; assay type: in vivo, Male Swiss OF-1 mice; details: hydrochloride
Protocol: as §1, §3, §4

[7] = administered before the Aβ25-35 peptide
[8] = mice one week after icv Aβ25-35 (Villard et al. 2011)
[9] = delayed administration: 0.3 mg/kg ip (FIG. 2: 0.1, 0.3) once a day day 7 to 13 after Aβ25-35, measured 14 days after Aβ25-35, 0.3 mg/kg
[10] = early administration: 0.1, 0.3 mg/kg ip (FIG. 1: 0.1-1) once a day day -7 to -1 before Aβ25-35 (day 0), 7 days after Aβ25-35

Sequence of σ1 (Q99720 whole entry): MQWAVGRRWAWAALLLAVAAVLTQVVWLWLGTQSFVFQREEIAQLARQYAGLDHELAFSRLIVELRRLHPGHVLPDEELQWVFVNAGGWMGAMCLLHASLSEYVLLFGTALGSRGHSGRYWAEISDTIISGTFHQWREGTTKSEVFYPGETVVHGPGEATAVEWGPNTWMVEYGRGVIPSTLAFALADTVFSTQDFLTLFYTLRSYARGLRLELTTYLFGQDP
Sequence of σ2 sites (Q5BJF2 whole entry): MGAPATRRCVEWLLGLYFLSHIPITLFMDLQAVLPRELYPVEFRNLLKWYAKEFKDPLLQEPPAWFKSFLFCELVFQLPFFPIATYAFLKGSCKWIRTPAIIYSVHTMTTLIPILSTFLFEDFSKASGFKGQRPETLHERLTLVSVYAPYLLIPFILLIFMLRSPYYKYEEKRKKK

Molecule: CN(C)CC1CCOC1(c1ccccc1)c1ccccc1.Cl (stereo not shown) [ANAVEX2-73, Tetrahydro-N,N-dimethyl-2,2-diphenyl-3-furanmethanamine hydrochloride]
- Aβ25-35-induced P-Akt decrease (Aβ25-35 treated mice [1]; Lahmy et al. 2013): blocked
- Aβ25-35-induced P-GSK-3β increase (Aβ25-35 treated mice [1]; Lahmy et al. 2013): blocked
- dose preventing hippocampal cell loss (Aβ25-35 treated mice [1]; [7]): 0.3 to 1 mg/kg
- dose preventing oxidative stress (Aβ25-35 treated mice [1]; [7]): 0.3 to 1 mg/kg
- dose preventing the appearance of Aβ25-35-induced learning deficits (Aβ25-35 treated mice [1]; [7]): 0.03 mg/kg
- hyperphosphorylation of Tau on pathological epitopes (AT-100 clone) (Aβ25-35 treated mice [1]; in the dose-range tested): attenuated
- hyperphosphorylation of Tau on physiological epitopes (AT-8 antibody clone) (Aβ25-35 treated mice [1]; in the dose-range tested): attenuated
- caspases induction (Aβ25-35 treated mice [1]; [8]): attenuating
- cellular loss (Aβ25-35 treated mice [1]; [8]): attenuating
- learning and memory deficits (Aβ25-35 treated mice [1]; [8]): attenuating
- oxidative stress (Aβ25-35 treated mice [1]; [8]): attenuating
- Aβ25-35-induced endogenous Aβ1-42 seeding (Aβ25-35 treated mice [1]; mouse, in vivo): decreasing
- reversing the learning impairments (Aβ25-35 treated mice [1]; one week after icv injection of Aβ25-35 peptide): effective
- IC50 (sodium channel site 2): 5.1 µM
- Aβ25-35-induced lipid peroxidation increase (toxicity) (Aβ25-35 treated mice [2]; [9]): significant attenuations; also recorded: effective
- Aβ25-35-induced lipid peroxidation in the hippocampus (toxicity) (Aβ25-35 treated mice [2]; [10]): significantly prevented; also recorded: blocked
- Aβ25-35-induced memory deficits, spontaneous alternation in the Y maze (Aβ25-35 treated mice [3]; [9]): significant attenuations; also recorded: effective
- Aβ25-35-induced memory deficits, spontaneous alternation in the Y maze (Aβ25-35 treated mice [3]; [10]): significantly prevented; also recorded: blocked
- affinity for muscarinic acetylcholine receptors ([4]; believed to bind): low micromolar range
- IC50 ([4]; screening profile, range over M1-M4): 3.3 to 5.2 µM
- minimal active dose (Aβ25-35 treated mice [5]): 0.1 mg/kg
- efficacy of the drug alone in the combination studies with memantine (Aβ25-35 treated mice [5]): therapeutic efficacy
- affinity for σ2 sites (σ2 sites): no affinity
- affinity for sigma-1 receptors (σ1): low micromolar range
- Aβ25-35-induced memory deficits, passive avoidance response (Aβ25-35 treated mice [6]; [9]): significant attenuations; also recorded: effective
- Aβ25-35-induced memory deficits, passive avoidance response (Aβ25-35 treated mice [6]; [10]): significantly prevented; also recorded: blocked

Molecule: CC12CC3CC(C)(C1)CC(N)(C3)C2 [memantine, Memantine, reference compound]
- efficacy of the drug alone in the combination studies with memantine (Aβ25-35 treated mice [5]): therapeutic efficacy

Molecule: Donepezil [reference compound]
- minimal active dose (Aβ25-35 treated mice [5]): 0.25 mg/kg
